Results reported in patent US20110028405A1, “SULFAMIDES AS ZAP-70 INHIBITORS” (priority 2007, published 2011).

Tests used:
Jurkat cells = experiment: Calcium release assay (Fluo-4, flow cytometry, anti-CD3 stimulation); type: cell-based; details: Homo sapiens; intracellular Ca2+ release in Jurkat cells after anti-CD3 activation
Procedure: Compounds of the present invention were tested in a Calcium release assay as described below.
The development of fluorescent probes makes it possible to measure the concentration of intracellular free Calcium ions in single living cells. Cells are first loaded with a cell-permeable Ca^2+-sensitive dye, then the test compound is added. Finally, cells are activated through the T cell receptor with an anti-CD3 antibody shortly before data acquisition on the flow cytometer. The release of Ca^2+ is measured as a function of time after cell stimulation. This protocol describes the flow cytometry method using the Fluo-3 and Fluo-4 dyes (Minta et al., 1989, J. Biol. Chem. 264(14):8171-8178) to measure the intracellular Ca^2+ concentration in Jurkat cells (see also June et al., 1997, Measurement of intracellular calcium ions by flow cytometry. In: Current Protocols in Cytometry (1997) Unit 9.8.1-9.8.19, John Wiley & Sons, Inc.).
1) Prepare a work plan indicating the number of samples to be analyzed including controls. 2) Cell harvest: Centrifuge 50 to 100 ml of a Jurkat cell culture for 5 minutes at 1100 rpm. Discard the supernatant, pool the resuspended cell pellets in a single 50 ml Falcon tube, and fill up to 50 ml with PBS-CaCl2 (without FCS). Centrifuge again sample again. 3) Resuspend cell pellet with PBS-CaCl2 (without FCS) to achieve a concentration not lower than 10×10^6 cells/ml. Prepare an adequate dilution to evaluate the cell concentration and count the cells. 4) Separate the volume of cells needed to be loaded (for example […] for 20 samples) in a 50 ml Falcon tube. Fill up with PBS-CaCl2 to 900 μl for 107 cells. 5) Prepare in the dark a 1:1 mix of FLUO-4 (1 mM)+Pluronic F-127 (20%). 5 μl of Fluo-4 are needed per 107 cells. 6) Prepare a 1/10 dilution of this mix with PBS-CaCl2 (in the dark; for example 5 μl Fluo-4+5 μl F-127 completed to 100 μl). 7) Add the dye solution to the cells. […] 8) Incubate the sample for 30 minutes in a cell incubator (37° C., 5% CO2). Mix from time to time. 9) During this time prepare the adequate test compound dilution in PBS-CaCl2 (with 10% FCS). The solution should be 10 times more concentrated than the desired final concentration. Vortex each dilution. Prepare also the antibody dilutions: anti-CD3 (1/200) and GAM (1/25). 10) Label FACS tubes and distribute in the corresponding tube 30 μl of the compound dilution or only buffer for the control tubes. 11) After 30 minutes of incubation wash the cells twice in PBS-CaCl2 (with 10% FCS). During the washing steps make sure that the flow cytometer is already “ON” in order to warm the laser. 12) Resuspend the cell pellet in PBS-CaCl2 (with 10% FCS) at a concentration of 1.5×10^6 cells/ml. 13) Distribute 300 μl of cell suspension into the FACS tubes and mix gently. The compound incubation is starting. Keep samples at room temperature in the dark. 14) Open the settings of the cytometer. It is advised to have a template ready which is used for all measurements. Settings of the machine should also be the same from one experiment to the other which permits to evaluate the reproducibility of the cell preparation. 15) In Setup modus control your cell preparation on the cytometer. Cells should fit in the pre-defined gates. 16) During the compound incubation time, check also that cells are responding to the anti-CD3 activation as expected. Set a timer at 8 sec. Add 6 μl of anti-CD3 dilution (0.2 μg/ml final) and mix gently. Add 1 μl of GAM dilution (0.75 μg/ml final) and mix gently. Incubate the samples in water bath at 37° C. while starting timer. After 8 seconds of incubation, acquire data at medium speed for 200 seconds. A clear increase of fluorescence should appear after 1 minute. 17) Make sure that the cells rest and equilibrate at room temperature 15 minutes before FACS data acquisition 18) Data acquisition: Samples to be compared should be measured consecutively. 19) For a better reproducibility, make sure that data for the loaded cells are acquired within 2 hours. […]

ZAP-70 = molecular target: T1, ZAP-70 (Homo sapiens, UniProt P43403); experiment: ZAP-70 kinobeads assay; type: binding; details: cell lysate, dot blot detection
T1 construct: endogenous in cells; host or cells: cell lysate
T1 sequence (P43403 1-619): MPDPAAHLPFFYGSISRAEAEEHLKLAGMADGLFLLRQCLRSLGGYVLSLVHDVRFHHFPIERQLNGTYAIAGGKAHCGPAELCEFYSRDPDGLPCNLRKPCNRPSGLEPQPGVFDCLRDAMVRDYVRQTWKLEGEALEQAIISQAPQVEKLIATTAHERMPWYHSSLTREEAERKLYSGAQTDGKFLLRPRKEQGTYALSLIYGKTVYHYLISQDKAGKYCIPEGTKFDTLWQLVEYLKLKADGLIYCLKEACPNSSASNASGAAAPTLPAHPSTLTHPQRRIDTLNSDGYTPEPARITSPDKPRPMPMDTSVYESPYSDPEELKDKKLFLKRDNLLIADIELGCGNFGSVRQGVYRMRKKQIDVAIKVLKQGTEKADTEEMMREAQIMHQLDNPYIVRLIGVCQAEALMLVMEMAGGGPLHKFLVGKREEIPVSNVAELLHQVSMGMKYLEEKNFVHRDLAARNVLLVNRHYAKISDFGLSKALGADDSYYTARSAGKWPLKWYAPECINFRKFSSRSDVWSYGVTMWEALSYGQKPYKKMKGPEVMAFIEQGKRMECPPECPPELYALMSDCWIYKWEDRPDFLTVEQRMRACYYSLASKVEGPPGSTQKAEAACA
Procedure: The compounds of the present invention as described in the previous examples can be tested in the ZAP-70 kinobeads assay as described (EP-A 1862802 and WO-A 2007/137867). Briefly, test compounds (at various concentrations) and the affinity matrix with the immobilized aminopyrido-pyrimidine ligand 24 are added to cell lysate aliquots and allowed to bind to the proteins in the lysate sample. After the incubation time the beads with captured proteins are separated from the lysate. Bound proteins are then eluted and the presence ZAP-70 is detected and quantified using a specific antibody in a dot blot procedure and the Odyssey infrared detection system.

CCNS(=O)(=O)Nc1cccc(Nc2nc(Nc3cc(OC)c(OC)c(OC)c3)ncc2F)c1 [Example 7, N-(3-(5-fluoro-2-(3,4,5-trimethoxyphenylamino)pyrimidin-4-ylamino)phenyl)-N′-ethylsulfamide]
IC50 (Jurkat cells): < 1000 nM
IC50 (ZAP-70): < 50000 nM

CN(C)c1ccc(Nc2ncc(F)c(Nc3ccccc3NS(N)(=O)=O)n2)cc1 [Example 29, N-(2-(5-fluoro-2-(4-(dimethylamino)phenylamino)pyrimidin-4-ylamino)phenyl)sulfamide]
IC50 (ZAP-70): < 1000 nM

COc1cc(Nc2ncc(F)c(Nc3cccc(NS(N)(=O)=O)c3)n2)cc(OC)c1OC [Example 1, N-(3-(5-fluoro-2-(3,4,5-trimethoxyphenylamino)pyrimidin-4-ylamino)phenyl)sulfamide]
IC50 (Jurkat cells): < 1000 nM
IC50 (ZAP-70): < 50000 nM

COc1cc(Nc2ncc(F)c(Nc3cccc(NS(=O)(=O)NC(C)C)c3)n2)cc(OC)c1OC [Example 6, N-(3-(5-fluoro-2-(3,4,5-trimethoxyphenylamino)pyrimidin-4-ylamino)phenyl)-N′-isopropylsulfamide]
IC50 (ZAP-70): < 50000 nM

COc1ccc(Nc2ncc(Br)c(Nc3ccccc3NS(N)(=O)=O)n2)cc1 [Example 26, N-(2-(5-bromo-2-(4-methoxyamino)pyrimidin-4-ylamino)phenyl)sulfamide]
IC50 (Jurkat cells): < 100 nM
IC50 (ZAP-70): < 1000 nM

COc1cc(Nc2ncc(F)c(Nc3ccc(C)cc3NS(N)(=O)=O)n2)cc(OC)c1OC [Example 34, N-(2-(5-Fluoro-2-(3,4,5-trimethoxyphenylamino)pyrimidin-4-ylamino)-5-methylphenyl)sulfamide]
IC50 (Jurkat cells): < 1000 nM
IC50 (ZAP-70): < 1000 nM

COc1cc(Nc2ncc(F)c(Nc3ccccc3NS(=O)(=O)NCc3ccccc3)n2)cc(OC)c1OC [Example 14, N-(2-(5-fluoro-2-(3,4,5-trimethoxyphenylamino)pyrimidin-4-ylamino)phenyl)-N′-benzylsulfamide]
IC50 (ZAP-70): < 50000 nM

COc1cc(Nc2ncc(F)c(Nc3ccccc3NS(=O)(=O)N(C)C)n2)cc(OC)c1OC [Example 11, N-(2-(5-fluoro-2-(3,4,5-trimethoxyphenylamino)pyrimidin-4-ylamino)phenyl)-N′,N′-dimethylsulfamide]
IC50 (Jurkat cells): < 1000 nM
IC50 (ZAP-70): < 1000 nM

COc1ccc(Nc2ncc(F)c(Nc3ccccc3NS(N)(=O)=O)n2)cc1 [Example 28, N-(2-(5-fluoro-2-(4-methoxyphenylamino)pyrimidin-4-ylamino)phenyl)sulfamide]
IC50 (Jurkat cells): < 1000 nM
IC50 (ZAP-70): < 50000 nM

CCOc1cccc(Nc2nc(Nc3cc(OC)c(OC)c(OC)c3)ncc2F)c1NS(N)(=O)=O [Example 33, N-(2-ethoxy-6-(5-fluoro-2-(3,4,5-trimethoxyphenylamino)pyrimidin-4-ylamino)phenyl)sulfamide]
IC50 (Jurkat cells): < 1000 nM
IC50 (ZAP-70): < 100 nM

COc1ccc(NS(N)(=O)=O)c(Nc2nc(Nc3cc(OC)c(OC)c(OC)c3)ncc2F)c1 [Example 36, N-(2-(5-fluoro-2-(3,4,5-trimethoxyphenylamino)pyrimidin-4-ylamino)-4-methoxyphenyl)sulfamide]
IC50 (Jurkat cells): < 1000 nM
IC50 (ZAP-70): < 50000 nM

COc1cc(Nc2ncc(F)c(Nc3cccc(NS(=O)(=O)NCC4CC4)c3)n2)cc(OC)c1OC [Example 3, N-(3-(5-fluoro-2-(3,4,5-trimethoxyphenylamino)pyrimidin-4-ylamino)phenyl)-N′-cyclopropylmethylsulfamide]
IC50 (ZAP-70): < 50000 nM

NS(=O)(=O)Nc1ccccc1Nc1nc(Nc2ccc3[nH]nnc3c2)ncc1Br [Example 27, N-(2-(2 (1H-benzo[d][1,2,3]triazol-5-ylamino)-5-bromopyrimidin-4-ylamino)phenyl)sulfamide]
IC50 (Jurkat cells): < 1000 nM
IC50 (ZAP-70): < 1000 nM

COc1cc(Nc2ncc(F)c(Nc3cccc(NS(=O)(=O)N(C)C)c3)n2)cc(OC)c1OC [Example 2, N-(3-(5-fluoro-2-(3,4,5-trimethoxyphenylamino)pyrimidin-4-ylamino)phenyl)-N′,N′-dimethylsulfamide]
IC50 (ZAP-70): < 50000 nM

COc1cc(Nc2ncc(F)c(Nc3ccccc3NS(=O)(=O)NC(C)C)n2)cc(OC)c1OC [Example 13, N-(2-(5-fluoro-2-(3,4,5-trimethoxyphenylamino)pyrimidin-4-ylamino)phenyl)-N′-isopropylsulfamide]
IC50 (ZAP-70): < 50000 nM

CN(C)c1ccc(Nc2ncc(Br)c(Nc3ccccc3NS(N)(=O)=O)n2)cc1 [Example 25]
IC50 (Jurkat cells): < 100 nM
IC50 (ZAP-70): < 1000 nM

COc1cc(Nc2ncc(F)c(Nc3ccccc3NS(N)(=O)=O)n2)cc(OC)c1OC [Example 10, N-(2-(5-fluoro-2-(3,4,5-trimethoxyphenylamino)pyrimidin-4-ylamino)phenyl)sulfamide]
IC50 (Jurkat cells): < 100 nM
IC50 (ZAP-70): < 100 nM

COc1cc(Nc2ncc(C)c(Nc3ccccc3NS(N)(=O)=O)n2)cc(OC)c1OC [Example 24, N-(2-(5-methyl-2-(3,4,5-trimethoxyphenylamino)pyrimidin-4-ylamino)phenyl)sulfamide]
IC50 (Jurkat cells): < 100 nM
IC50 (ZAP-70): < 1000 nM

COc1cccc(Nc2nc(Nc3cc(OC)c(OC)c(OC)c3)ncc2F)c1NS(N)(=O)=O [Example 32, N-(2-(5-fluoro-2-(3,4,5-trimethoxyphenylamino)pyrimidin-4-ylamino)-6-methoxyphenyl)sulfamide]
IC50 (Jurkat cells): < 100 nM
IC50 (ZAP-70): < 100 nM

COCCNS(=O)(=O)Nc1cccc(Nc2nc(Nc3cc(OC)c(OC)c(OC)c3)ncc2F)c1 [Example 8, N-(3-(5-fluoro-2-(3,4,5-trimethoxyphenylamino)pyrimidin-4-ylamino)phenyl)-N′-(2-methoxyethyl)sulfamide]
IC50 (ZAP-70): < 50000 nM

CNS(=O)(=O)Nc1cccc(Nc2nc(Nc3cc(OC)c(OC)c(OC)c3)ncc2F)c1 [Example 9, N-(3-(5-fluoro-2-(3,4,5-trimethoxyphenylamino)pyrimidin-4-ylamino)phenyl)-N′-methylsulfamide]
IC50 (ZAP-70): < 50000 nM

COc1cc(Nc2ncc(F)c(Nc3ccc(NS(=O)(=O)N(C)C)cc3)n2)cc(OC)c1OC [Example 16, N-(4-(5-fluoro-2-(3,4,5-trimethoxyphenylamino)pyrimidin-4-ylamino)phenyl)N′,N′-dimethylsulfamide]
IC50 (Jurkat cells): < 1000 nM
